From patent US9113629B2, “4-amino-6-(4-substituted-phenyl)-picolinates and 6-amino-2-(4-substituted-phenyl)-pyrimidine-4-carboxylates and their use as herbicides” (DOW AGROSCIENCES LLC, priority 2013, dated 2015)

These compounds were tested on LAMSS (assay: Post-emergent Test III, herbicidal activity in wheat and barley). Details: Table 8; dose for 50 percent growth reduction, probit analysis; 21 d.
Type: in vivo
In short: (§1)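 Plants at the second to third true-leaf stage, grown in a greenhouse at about 18/17 °C with a 14 h photoperiod, were sprayed post-emergence at 187 L/ha with the high rate and ½× to 1/16× serial dilutions in an acetone/DMSO/crop-oil/surfactant carrier. Injury was rated visually at 21 d on a 0–100% scale, and GR20–GR90 were derived by probit analysis.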

SMILES	GR50 LAMSS
COC(=O)c1nc(-c2ccc(Br)c(F)c2)nc(N)c1OC [Compound 171, Methyl 6-amino-2-(4-bromo-3-fluorophenyl)-5-methoxypyrimidine-4-carboxylate]	2 g ai/ha

Same assay, conditions: Table 8; dose for 80 percent growth reduction, probit analysis; 21 d

SMILES	GR80 LAMSS
COC(=O)c1nc(-c2ccc(Br)c(F)c2)nc(N)c1OC [Compound 171, Methyl 6-amino-2-(4-bromo-3-fluorophenyl)-5-methoxypyrimidine-4-carboxylate]	11 g ai/ha

Same assay, conditions: post-emergence, 504 h; 35 g ai/ha; read-out: Visual Growth Reduction (%) 21 Days After Application LAMSS

SMILES	pest or weed control at 35 g/ha
Nc1c(F)c(-c2ccc(Br)cc2)nc(C(=O)O)c1Cl [Compound 20]	95 to 100%
N#Cc1ccc(-c2nc(C(=O)O)c(Cl)c(N)c2F)cc1 [Compound 39]	95 to 100%

Same assay, conditions: post-emergence, 504 h; 70 g ai/ha; read-out: Visual Growth Reduction (%) 21 Days After Application LAMSS

SMILES	pest or weed control at 70 g/ha
Nc1c(F)c(-c2ccc(Br)cc2)nc(C(=O)O)c1Cl [Compound 20]	95 to 100%
N#Cc1ccc(-c2nc(C(=O)O)c(Cl)c(N)c2F)cc1 [Compound 39]	95 to 100%

Same assay, conditions: post-emergence, 504 h; 140 g ai/ha; read-out: Visual Growth Reduction (%) 21 Days After Application LAMSS

SMILES	pest or weed control at 140 g/ha
Nc1c(F)c(-c2ccc(Br)cc2)nc(C(=O)O)c1Cl [Compound 20]	95 to 100%
N#Cc1ccc(-c2nc(C(=O)O)c(Cl)c(N)c2F)cc1 [Compound 39]	95 to 100%

Same assay, conditions: post-emergence, 504 h; Table 8; 35 g ai/ha; post-emergent; 21 d; read-out: Visual Growth Reduction (%) 21 Days After Application LAMSS

SMILES	pest or weed control at 35 g/ha
COC(=O)c1nc(-c2ccc(Br)c(F)c2)nc(N)c1OC [Compound 171, Methyl 6-amino-2-(4-bromo-3-fluorophenyl)-5-methoxypyrimidine-4-carboxylate]	85 to 94%

Same assay, conditions: post-emergence, 504 h; Table 8; 70 g ai/ha; post-emergent; 21 d; read-out: Visual Growth Reduction (%) 21 Days After Application LAMSS

SMILES	pest or weed control at 70 g/ha
COC(=O)c1nc(-c2ccc(Br)c(F)c2)nc(N)c1OC [Compound 171, Methyl 6-amino-2-(4-bromo-3-fluorophenyl)-5-methoxypyrimidine-4-carboxylate]	95 to 100%

Same assay, conditions: probit analysis, dose for growth reduction of 50 percent, 21 days after application

SMILES	GR50 LAMSS
Nc1c(F)c(-c2ccc(Br)cc2)nc(C(=O)O)c1Cl [Compound 20]	1 g ai/ha
N#Cc1ccc(-c2nc(C(=O)O)c(Cl)c(N)c2F)cc1 [Compound 39]	1 g ai/ha

Same assay, conditions: probit analysis, dose for growth reduction of 80 percent, 21 days after application

SMILES	GR80 LAMSS
Nc1c(F)c(-c2ccc(Br)cc2)nc(C(=O)O)c1Cl [Compound 20]	1 g ai/ha
N#Cc1ccc(-c2nc(C(=O)O)c(Cl)c(N)c2F)cc1 [Compound 39]	1 g ai/ha

What follows are compounds tested on PAPRH: common poppy (Papaver rhoeas) in the same assay as above. Details: Papaver rhoeas, post-emergence, 504 h; 35 g ai/ha; read-out: Visual Growth Reduction (%) 21 Days After Application PAPRH.
Type: in vivo
In short: as §1

SMILES	pest or weed control at 35 g/ha
Nc1c(F)c(-c2ccc(Br)cc2)nc(C(=O)O)c1Cl [Compound 20]	95 to 100%
N#Cc1ccc(-c2nc(C(=O)O)c(Cl)c(N)c2F)cc1 [Compound 39]	95 to 100%

Same assay, conditions: Papaver rhoeas, post-emergence, 504 h; 70 g ai/ha; read-out: Visual Growth Reduction (%) 21 Days After Application PAPRH

SMILES	pest or weed control at 70 g/ha
Nc1c(F)c(-c2ccc(Br)cc2)nc(C(=O)O)c1Cl [Compound 20]	95 to 100%
N#Cc1ccc(-c2nc(C(=O)O)c(Cl)c(N)c2F)cc1 [Compound 39]	95 to 100%

Same assay, conditions: Papaver rhoeas, post-emergence, 504 h; 140 g ai/ha; read-out: Visual Growth Reduction (%) 21 Days After Application PAPRH

SMILES	pest or weed control at 140 g/ha
Nc1c(F)c(-c2ccc(Br)cc2)nc(C(=O)O)c1Cl [Compound 20]	95 to 100%
N#Cc1ccc(-c2nc(C(=O)O)c(Cl)c(N)c2F)cc1 [Compound 39]	95 to 100%

Same assay, conditions: Papaver rhoeas, post-emergence, 504 h; Table 8; 35 g ai/ha; post-emergent; 21 d; read-out: Visual Growth Reduction (%) 21 Days After Application PAPRH

SMILES	pest or weed control at 35 g/ha
COC(=O)c1nc(-c2ccc(Br)c(F)c2)nc(N)c1OC [Compound 171, Methyl 6-amino-2-(4-bromo-3-fluorophenyl)-5-methoxypyrimidine-4-carboxylate]	95 to 100%

Same assay, conditions: Papaver rhoeas, post-emergence, 504 h; Table 8; 70 g ai/ha; post-emergent; 21 d; read-out: Visual Growth Reduction (%) 21 Days After Application PAPRH

SMILES	pest or weed control at 70 g/ha
COC(=O)c1nc(-c2ccc(Br)c(F)c2)nc(N)c1OC [Compound 171, Methyl 6-amino-2-(4-bromo-3-fluorophenyl)-5-methoxypyrimidine-4-carboxylate]	95 to 100%

Same assay, conditions: Table 8; dose for 50 percent growth reduction, probit analysis; 21 d

SMILES	GR50 PAPRH
COC(=O)c1nc(-c2ccc(Br)c(F)c2)nc(N)c1OC [Compound 171, Methyl 6-amino-2-(4-bromo-3-fluorophenyl)-5-methoxypyrimidine-4-carboxylate]	1 g ai/ha

Same assay, conditions: Table 8; dose for 80 percent growth reduction, probit analysis; 21 d

SMILES	GR80 PAPRH
COC(=O)c1nc(-c2ccc(Br)c(F)c2)nc(N)c1OC [Compound 171, Methyl 6-amino-2-(4-bromo-3-fluorophenyl)-5-methoxypyrimidine-4-carboxylate]	1 g ai/ha

Same assay, conditions: probit analysis, dose for growth reduction of 50 percent, 21 days after application

SMILES	GR50 PAPRH
Nc1c(F)c(-c2ccc(Br)cc2)nc(C(=O)O)c1Cl [Compound 20]	1 g ai/ha
N#Cc1ccc(-c2nc(C(=O)O)c(Cl)c(N)c2F)cc1 [Compound 39]	0 g ai/ha

Same assay, conditions: probit analysis, dose for growth reduction of 80 percent, 21 days after application

SMILES	GR80 PAPRH
Nc1c(F)c(-c2ccc(Br)cc2)nc(C(=O)O)c1Cl [Compound 20]	1 g ai/ha
N#Cc1ccc(-c2nc(C(=O)O)c(Cl)c(N)c2F)cc1 [Compound 39]	0 g ai/ha

These compounds were tested on ALOMY: black-grass (Alopecurus myosuroides) in the same assay as above. Details: Alopecurus myosuroides, post-emergence, 504 h; 35 g ai/ha; read-out: Visual Growth Reduction (%) 21 Days After Application ALOMY.
Type: in vivo
In short: as §1

SMILES	pest or weed control at 35 g/ha
Nc1c(F)c(-c2ccc(Br)cc2)nc(C(=O)O)c1Cl [Compound 20]	75 to 84%
N#Cc1ccc(-c2nc(C(=O)O)c(Cl)c(N)c2F)cc1 [Compound 39]	0 to 29%

Same assay, conditions: Alopecurus myosuroides, post-emergence, 504 h; 70 g ai/ha; read-out: Visual Growth Reduction (%) 21 Days After Application ALOMY

SMILES	pest or weed control at 70 g/ha
Nc1c(F)c(-c2ccc(Br)cc2)nc(C(=O)O)c1Cl [Compound 20]	75 to 84%
N#Cc1ccc(-c2nc(C(=O)O)c(Cl)c(N)c2F)cc1 [Compound 39]	45 to 59%

Same assay, conditions: Alopecurus myosuroides, post-emergence, 504 h; 140 g ai/ha; read-out: Visual Growth Reduction (%) 21 Days After Application ALOMY

SMILES	pest or weed control at 140 g/ha
Nc1c(F)c(-c2ccc(Br)cc2)nc(C(=O)O)c1Cl [Compound 20]	75 to 84%
N#Cc1ccc(-c2nc(C(=O)O)c(Cl)c(N)c2F)cc1 [Compound 39]	45 to 59%

Same assay, conditions: probit analysis, dose for growth reduction of 50 percent, 21 days after application

SMILES	GR50 ALOMY
Nc1c(F)c(-c2ccc(Br)cc2)nc(C(=O)O)c1Cl [Compound 20]	21 g ai/ha
N#Cc1ccc(-c2nc(C(=O)O)c(Cl)c(N)c2F)cc1 [Compound 39]	111 g ai/ha

Same assay, conditions: probit analysis, dose for growth reduction of 80 percent, 21 days after application

SMILES	GR80 ALOMY
Nc1c(F)c(-c2ccc(Br)cc2)nc(C(=O)O)c1Cl [Compound 20]	72 g ai/ha
N#Cc1ccc(-c2nc(C(=O)O)c(Cl)c(N)c2F)cc1 [Compound 39]	>140 g ai/ha
